Here are results for 72 compounds from PubChem BioAssay AID449762 (Southern Research Specialized Biocontainment Screening …, 2010).

The subject of the experiment is M. tuberculosis H37Rv growth inhibition, 7H9 media. The experiment in a line: M. tuberculosis growth inhibition, HTS (AID 449762).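 As to all read-outs here: bacterial growth assessed after seven days of incubation.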 The settings on record: for IC90: measured here: IC90 growth inhibition.

pIC50: −log10 of the molar value. Inconclusive results are not listed. A value given as a limit tells only on which side of the number the result lay.

Consider `O=C(c1cnn2c(C(F)F)cc(-c3ccccc3)nc12)N1CCc2ccccc2C1`, for which the pIC50 (as a rule, −log10 of the IC50, conventionally taken in molar units) was 4.39 and the IC90 – broadly, the point of the concentration-response curve where the effect stands at 90% – worked out at 49 µM. The corresponding values for `Cc1ccccc1C(=O)Nc1ccc(N(C)C)c2ccccc12` are 4.78 and greater than 100 µM. The corresponding values for `Cc1nn(-c2ccccc2)c(N)c1N=Nc1ccc(Cl)cc1` are 4.56 and 41.5 µM.

With `O=C(CSc1nnc(-c2cccs2)o1)NCC1CN(Cc2ccccc2)CCO1` (stereo not given), the negative logarithm of the IC50 (pIC50) was 5.28 and the IC90 amounted to 15.2 µM. Take `CC1CCCCC1NC(=O)c1ccc2c(c1)[nH]c(=O)n2C1CCCC1` (stereo not given): the pIC50 is 5.29 and the IC90 amounted to 8.42 µM. The like results for `CCCOc1ccc2oc(=O)c3c(c2c1)CCCN3C(=O)CN1CCN(c2ncccn2)CC1` were, in that order, 4.68 and 33.8 µM. The like results for `S=C(Nc1ccc(Nc2ccccc2)cc1)Nc1ccccn1` were, in that order, 4.31 and greater than 50 µM. Regarding `CCc1ccc(/C=C2/C(=O)N(C)C(=S)N2CC(=O)OC)s1`, the pIC50 was 5.84 and the IC90 stood at 5.75 µM.

Take `COc1ccccc1NC(=O)c1ccc(NC(=O)CSc2nnnn2C)cc1`: the pIC50 is 5.54 and the IC90 is 13.8 µM. The like results for `CCc1ccc(CCOc2ccc(CC3SC(=O)NC3=O)cc2)nc1` (stereo not given) were, in that order, 4.63 and greater than 25 µM. The like results for `CCOC(=O)Oc1c(OC)cc(C(=O)O[C@@H]2C[C@@H]3CN4CCc5c([nH]c6cc(OC)ccc56)[C@H]4C[C@@H]3[C@H](C(=O)OC)[C@H]2OC)cc1OC` were, in that order, 4.71 and 27.3 µM. The like results for `CC(NC(=O)CCl)c1ccc(Cl)c(Cl)c1` (stereo not given) were, in that order, 5.93 and 2.91 µM. Take `COc1ccc(-c2oc3ccc(-c4ccc(OC)nc4)cc3c2C#CC2(O)CCCCC2)cc1`: the pIC50 is 4.02 and the 90% effect concentration (IC90) was greater than 100 µM.

As to `CC(C)CC[n+]1ccccc1/C=C/c1ccc(N(C)C)cc1`, the pIC50 is 5.28 and the IC90 was 8.41 µM. The corresponding values for `COc1cc(C2c3cc4c(cc3C(OC3OC5COC(c6cccs6)OC5C(O)C3O)C3COC(=O)C23)OCO4)cc(OC)c1O` (stereo not given) are 4.88 and 29.5 µM. For the compound `CC(C)C(=O)Nc1cccc(-c2nc3ccccc3c(=O)o2)c1`, the negative logarithm of the IC50 (pIC50) is 4.35 and the IC90 was greater than 100 µM. The corresponding values for `CC(=O)n1cc(/C=C2/N=C(c3ccccc3)OC2=O)c2ccccc21` are 4.51 and 75.5 µM.

For `CCN(Cc1ccncc1)Cc1nc(-c2ccc(C(=O)OC)cc2)no1`, the pIC50 was 4.82 and the IC90 was determined as 41.6 µM.

In the case of `CC(C)(C)c1ccc(OCCC(=O)OCC(=O)NC(=O)NC2CCCC2)cc1`, the pIC50 is 5.26 and the IC90 is 8.58 µM. On to `COCCCn1c(SCc2cccc(OC)c2)nc2cc(OC)c(OC)cc2c1=N`, for which the pIC50 was 4.43 and the IC90 was found to be 49 µM. The like results for `O=C(CCC(=O)NC1CCCCCCC1)Nc1nnc(C(F)(F)F)s1` were, in that order, 4.92 and 13.9 µM. The like results for `COc1ccc(-c2cc3n(n2)CCc2nc4ccccc4n2-3)cc1` were, in that order, 5.97 and 5.92 µM. Regarding `Cc1ccc2[nH]c(C)c(CCNC(=O)c3cc4cc([N+](=O)[O-])ccc4oc3=O)c2c1`, the pIC50 was 5.07 and the IC90 was 16.5 µM.

For `CCC(C)NC(=O)c1c(N)n(/N=C/c2ccccn2)c2nc3ccccc3nc12` (stereo not given), the pIC50 is 5.01 and the IC90 was 14.3 µM. The corresponding values for `O=C(CSc1nnnn1-c1ccc2c(c1)OCCO2)OC1CCCCC1` are 4.93 and 21.7 µM. The corresponding values for `COc1cnc(-c2ccccn2)nc1Oc1ccc(Cl)c2ccccc12` are greater than 6.70 and 2.86 µM. `CCOC(=O)COn1c2c(c3c4no[n+]([O-])c4ccc31)CCCC2`: the pIC50 was 5.50 and the IC90 came to 5.83 µM. The corresponding values for `CCOC(=O)CSc1snnc1-c1ccccc1` are 4.86 and 59.6 µM. In the case of `COC(=O)[C@H](CC(C)C)NC(=O)c1cc2c(cn1)[nH]c1ccccc12`, the pIC50 was 5.07 and the IC90 was found to be 29.2 µM. The corresponding values for `N#Cc1c(SCC(N)=O)nsc1SCc1ccccc1Cl` are 4.90 and 34.7 µM. The like results for `Cn1nc(-c2ccccn2)nc2c(=O)n(C)c(=O)nc1-2` were, in that order, 5.04 and 14.5 µM. The like results for `O=C(NNC1CC(=O)N(c2ccc(Br)cc2)C1=O)c1ccccn1` (stereo not given) were, in that order, 5.23 and 13.6 µM.

For `Cc1cc(/C=N/n2cnnc2)c(C)n1-c1ccc(OCc2ccc(Cl)cc2Cl)cc1`, the pIC50 is 5.14 and the IC90 was found to be 15.8 µM. The like results for `O=C(/C=C/c1ccco1)Oc1ccc(C(=S)N2CCOCC2)cc1` were, in that order, 4.41 and greater than 100 µM. The like results for `COc1cc(C)c(/C=C/C(C)=C/C=C/C(C)=C/C(=O)O)c(C)c1C` were, in that order, 5.81 and 6.76 µM.

Regarding `C/C(=N\NC(=O)c1ccc(O)cc1)c1ccc2c(c1)Nc1ccccc1S2`, the pIC50 is 4.61 and the IC90 is 62.8 µM. The corresponding values for `O=C(Nc1ccc(Oc2cccc(C(F)(F)F)c2)nc1)c1cccs1` are 4.40 and greater than 100 µM. Turning to `c1ccc(-c2ccccc2OCCCCn2ccnc2)cc1`, the negative-log IC50 (pIC50) was 4.89 and the IC90 turned out to be 25.6 µM. The corresponding values for `CCCC1CC(C)(c2csc(Nc3ccc(OCC)cc3)n2)OC1=O` (stereo not given) are 4.47 and 46.5 µM. For `CCC(C)c1ccc2oc(-c3ccc(NC(=O)c4ncn[nH]4)cc3)nc2c1` (stereo not given), the pIC50 is 5.80 and the IC90 is 7.52 µM. The corresponding values for `CC1CCN(C(=O)c2ccc(-c3ccccc3Cl)o2)CC1` are 4.75 and 65.8 µM. The corresponding values for `CCc1ccc(C2c3[nH]c4ccccc4c3CCN2C(=O)c2ccc(=O)n(C)n2)cc1` (stereo not given) are 4.30 and 74.3 µM. The corresponding values for `O=C1C2C(C(=O)N1/N=C/c1ccc([N+](=O)[O-])o1)C1C=CC2C12CC2` (stereo not given) are 4.72 and 29.6 µM. `Cn1nnc(NC(=S)NC(=O)c2ccc(-c3ccc(Br)cc3)o2)n1` displayed an IC90 greater than 100 µM. On to `Cc1ccc(NC(=O)COC(=O)C(NS(=O)(=O)c2ccc(Cl)cc2)C(C)O)cc1C` (stereo not given), for which the pIC50 is 5.66 and the IC90 came out at 8.97 µM.

On to `CCOC(=O)c1ccc(Nc2cc3ccccc3c(=O)[nH]2)cc1`, for which the pIC50 is 4.14 and the IC90 is greater than 100 µM. The like results for `CC(C)(C)C1CCc2nc(NC(=O)Cc3cn4ccsc4n3)sc2C1` (stereo not given) were, in that order, 4.81 and 39.6 µM. The corresponding values for `CCN(CC)c1ccc2nc3ccccc3[n+](CC)c2c1` are 5.57 and 5.66 µM. Regarding `CC(C)(O)C#Cc1ccc(C(=O)Nc2ccc3c(c2)OCO3)s1`, the pIC50 is 5.79 and the IC90 is greater than 100 µM. The corresponding values for `COc1cc2nc(N3CCN(c4cc(C)ccc4C)CC3)nc(N)c2cc1OC` are 4.86 and 15.8 µM.

Regarding `CCOc1ccc(N(C(=O)/C=C/C(=O)Nc2cc(C)on2)C(C(=O)NC2CCCC2)c2ccccc2C)cc1` (stereo not given), the pIC50 was 4.18 and the IC90 is greater than 100 µM. The corresponding values for `O=c1[nH]c(=O)n(Cc2ccccc2)c2nc(-c3ccc(Oc4ccc(F)cc4)c([N+](=O)[O-])c3)n(CCO)c12` are 4.61 and greater than 100 µM. The corresponding values for `CCn1c(SCC(=O)OC2CCCCC2)nc2ccccc2c1=O` are 4.66 and 37.7 µM. The corresponding values for `COc1cc(NC(=O)C/C(C)=N/NC(=O)c2ccccn2)c(OC)cc1Cl` are 5.52 and 4.13 µM.

As to `Cn1nc(C(C)(C)C)cc1NC(=O)Nc1cc(Cl)cc(Cl)c1`, the pIC50 is 4.73 and the IC90 turned out to be 26.3 µM. For the compound `Cc1ccc(OC(=O)c2oc3ccc(F)cc3c2C)c(C)c1`, the pIC50 is 5.17 and the IC90 is 18.6 µM. The corresponding values for `Cc1cc(C)nc(-n2nc(C)cc2NC(=O)CN2CCC(C)CC2)n1` are 5.16 and 16.9 µM. The corresponding values for `O=C(Nc1cc(C(F)(F)F)ccc1-n1cncn1)c1ccc([N+](=O)[O-])o1` are 5.02 and 32.5 µM. The corresponding values for `CSc1ccc(CNC(=O)c2ccc(NC(=O)C3=CSCCO3)cc2)cc1` are 6.18 and greater than 100 µM. As to `O=C(NCC1CCN(c2ccc(S(=O)(=O)N3CCOCC3)cc2)CC1)c1ccc(Cl)cc1`, the pIC50 was 4.50 and the IC90 was found to be 51.8 µM. The like results for `COC(=O)c1ccc(COC(=O)CCc2nc(-c3ccccc3)c(-c3ccccc3)o2)cc1` were, in that order, 4.67 and greater than 100 µM. The compound `CCOc1ccc2nc(/N=C/c3nc(-c4ccccc4)oc3O)sc2c1` showed an IC90 greater than 100 µM. Turning to `O=C1c2ccccc2-c2onc3ccc(Oc4ccccc4)c1c23`, the pIC50 is 5.25 and the IC90 amounted to 10.9 µM. For `COc1ccc(NC(=O)CSc2nnc(-c3ccccn3)n2N)cc1Cl`, the pIC50 is 4.74 and the IC90 was greater than 100 µM.

On to `Cc1ccc(N2C(=O)C(F)(F)C2c2ccccc2)cc1` (stereo not given), for which the pIC50 is 5.55 and the IC90 stood at 5.46 µM. `CCOC(=O)C(/C=C(\C#N)C(=O)OCC)=C(/N)N1CCN(c2ccc(Cl)cc2)CC1`: the pIC50 was 4.73 and the IC90 is greater than 100 µM. With `O=Cc1ccc(-c2ccc(Cl)cc2Cl)[nH]1`, the IC90 was greater than 100 µM.

For `Clc1ccc2c(c1)CCc1cccnc1C2=C1CCNCC1`, the pIC50 is 4.57 and the IC90 is 31.3 µM.

Regarding `O=[N+]([O-])c1cc(-c2nc(-c3ccncc3)no2)cc([N+](=O)[O-])c1`, the pIC50 is 5.44 and the IC90 came out at 11.4 µM. `Nc1ccc(N=Nc2ccccc2)c2cccnc12`: the pIC50 was 4.96 and the IC90 came out at 49.5 µM. The corresponding values for `O=C(NCc1ccccn1)C(=O)Nc1nc(C23CC4CC(CC(C4)C2)C3)cs1` are 5.76 and 5.26 µM. For `CN(C(=O)COC(=O)/C=C/c1ccc(Cl)c(Cl)c1)c1c(N)n(Cc2ccccc2)c(=O)[nH]c1=O`, the IC90 was greater than 100 µM.
